# Target: T1, CCR2 (Homo sapiens, UniProt P41597)
# T1 construct: Membranes were prepared from THP-1 cells; endogenous in cells; host or cells: THP-1 (human acute monocytic leukaemia cells), membrane preparation
# Assay: CCR2 receptor membrane binding assay ([125I]MCP-1, THP-1 cell membranes, SPA beads)
# Details: THP-1 membranes, [125I]MCP-1, bound radioactivity determined after 8 h; read-out: hKi
# Method: The above exemplary substances have been tested for binding to CCR2 using a binding assay as outlined herein below:
# THP-1 cells (human acute monocytic leukaemia cells) were cultured under standardized conditions at 37° C. and 5% CO2 in a humidified incubator. THP-1 cells were cultivated in RPMI 1640 medium (Gibco 21875) containing 1% MEM-NEAA (Gibso 11140) 2 mM L-glutamine, 1.5 g/L sodium bicarbonate, 4.5 g/L glucose, 10 mM HEPES and 1.0 mM sodium pyruvate, 90%; 10% fetal calf serum (FCS Gibco 10500-064).
# Membranes were prepared from THP-1 cells. THP-1 cells were centrifuged at 300×g at 4° C. for 10 min. The cell pellet was resuspended in Phosphate Buffer Saline (PBS, including 10 μM Pefabloc and a protease inhibitor mix ‘complete’, Boehringer Mannheim (1 tablet/50 ml)), to a concentration of […]. The membrane preparation was performed by disrupting the cells by nitrogen […] (at 50 bar, for 1 h) in a “Nitrogen Bombe” (Parr Instrument). Cell debris was removed by centrifugation (800×g at 4° C., 1 min). The supernatant was centrifuged at 80000×g, 4° C. for 30 min to sediment the cell membranes. Usually 50 mg of protein (Bradford assay) were yielded from 1×10E9 cells. The membranes were resuspended in 25 mM HEPES, 25 mM MgCl2, 1 mM CaCl2, 10% Glycerine for storage in aliquots at −80° C. in 25 mM HEPES, 25 mM MgCl2, 1 mM CaCl2, 10% Glycerine and stored at −80° C.
# Receptor Membrane Binding Assay:
# Perkin Elmer NEX 332 Jod 125 MCP-1, Stock: 2200 Ci/mmol solved in […] assay buffer, stored at −20° C. THP-1 membrane were adjusted with 25 mM HEPES, pH 7.2; 5 mM MgCl2; 0.5 mM CaCl2; 0.2% BSA assay buffer to a concentration of 2.5 μg/15 μl. Amersham Biosciences PVT-WGA Beads (RPNQ0001) were adjusted with assay buffer to a concentration of 0.24 mg/30 μl. For preparation of the membrane-bead-suspension membranes and beads were incubated for 30 min at RT under rotation (60 rpm) with a ratio of 1:2. Test compounds dissolved in 100% DMSO to a concentration of 10 mM and are further diluted with 100% DMSO to 1 mM. All additional compound dilutions were obtained with assay buffer, final 1% DMSO. Compounds, membrane-bead-suspension and [^125I]MCP-1 (ca. 25000 cpm/10 μl) were incubated. Bound radioactivity was determined by scintillation counter after 8 h. Determination of affinity of test compounds (dissociation constant hKi) is calculated by iterative fitting of experimental data using the “easy sys” program, which is based on law of mass action (Schittkowski K. (1994), Numerische Mathematik, Vol. 68, 129-142).
# T1 sequence (P41597 whole entry): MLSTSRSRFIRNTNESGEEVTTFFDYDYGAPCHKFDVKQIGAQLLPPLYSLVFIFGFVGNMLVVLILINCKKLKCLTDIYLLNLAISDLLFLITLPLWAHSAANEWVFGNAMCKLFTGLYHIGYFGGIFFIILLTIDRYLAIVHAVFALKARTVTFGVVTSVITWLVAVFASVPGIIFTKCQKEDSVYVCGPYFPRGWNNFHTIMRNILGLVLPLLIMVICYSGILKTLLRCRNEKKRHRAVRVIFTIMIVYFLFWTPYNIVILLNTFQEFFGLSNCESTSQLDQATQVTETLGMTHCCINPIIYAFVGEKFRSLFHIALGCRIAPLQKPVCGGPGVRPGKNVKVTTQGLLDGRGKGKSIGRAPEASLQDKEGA
row,SMILES,Ki [µM]
1,COC1COCCC1NC1CCN(C(=O)c2ncnc(N3CCc4ncc(Br)cc4C3)c2C)CC1 (stereo not shown) [Example 40],0.304
2,COC1COCCC1NC1CCN(C(=O)c2ncnc(N3CCC4(C=Cc5ccccc54)CC3)c2C)CC1 (stereo not shown) [Example 23],0.455
3,COC1COCCC1NC1CCN(C(=O)c2ncnc(N3CCC(c4cccc(C(F)(F)F)c4)CC3)c2C)CC1 (stereo not shown) [Example 42],0.23
4,COC1COCCC1NC1CCN(C(=O)c2ncnc(N3CCCC(c4ccc(C)cc4)C3)c2C)CC1 (stereo not shown) [Example 33],2.11
5,COC1COCCC1NC1CCN(C(=O)c2ncnc(N3CCCC(c4ccc(C(F)(F)F)cc4)C3)c2C)CC1 (stereo not shown) [Example 36],1.27
6,Cc1c(C(=O)N2CCC(N3CCC(N(C)S(C)(=O)=O)CC3)CC2)ncnc1N1CCC(c2ccc(Cl)cc2)C1 (stereo not shown) [Example 47],1.1
7,CO[C@@H]1COCC[C@@H]1N(C)C1CCN(C(=O)c2ncnc(N3CCc4ccc(C(F)(F)F)cc4C3)c2C)CC1 [Example 85],0.005
8,COC1COCCC1NC1CCN(C(=O)c2ncnc(N3CCc4ccc(F)cc4C3)c2C)CC1 (stereo not shown) [Example 7],0.027
9,Cc1c(C(=O)N2CCCN(C)CC2)ncnc1N1CCc2ccc(C(F)(F)F)cc2C1 [Example 81],2.32
10,Cc1c(C(=O)N2CCC(N3CCOCC3)CC2)ncnc1N1CCc2ccc(C(F)(F)F)cc2C1 [Example 82],0.203
11,Cc1c(C(=O)N2CCC(N3CCC(N(C)S(C)(=O)=O)CC3)CC2)ncnc1N1CCC(c2cccc(Cl)c2)CC1 [Example 27],0.661
12,COC1COCCC1NC1CCN(C(=O)c2ncnc(N3CCCC(c4cccc(F)c4)C3)c2C)CC1 (stereo not shown) [Example 12],1.1
13,Cc1c(C(=O)N2CCC(N3CCC(N(C)S(C)(=O)=O)CC3)CC2)ncnc1N1CCCC(c2ccc(C(F)(F)F)cc2)C1 (stereo not shown) [Example 34],4.25
14,Cc1c(C(=O)N2CCC(N3CCC(N(C)S(C)(=O)=O)CC3)CC2)ncnc1N1CCCCC1c1cccc(Cl)c1 (stereo not shown) [Example 35],2.86

# Now from value to compound:
row,Ki [µM],SMILES
1,0.001,COc1nc(C(=O)N2CCC(N[C@H]3CCOC[C@H]3OC)CC2)c(C)c(N2CCc3ccc(C(F)(F)F)cc3C2)n1 [Example 69j]
2,1,COC1COCCC1NC1CCN(C(=O)c2ncnc(N3CCn4cc(C(F)(F)F)nc4C3)c2C)CC1 (stereo not shown) [Example 62ac]
3,0.012,CO[C@@H]1COCC[C@@H]1NC1CCN(C(=O)c2ncnc(N3CCC4(CCc5cc(Br)ccc5O4)CC3)c2C)CC1 [Example 62am]
4,0.016,Cc1c(C(=O)N2CCC(N[C@@H]3CCOC[C@@H]3F)CC2)ncnc1N1CCc2ccc(C(F)(F)F)cc2C1 [Example 69m]
5,0.566,CO[C@@H]1COCC[C@@H]1NC1CCN(C(=O)c2cc(N3CCc4ccc(C(F)(F)F)cc4C3)ncn2)CC1 [Example 62a]
6,0.0007,CO[C@H]1COCC[C@H]1NC1CCN(C(=O)c2nc(C3CC3)nc(N3CCc4ccc(C(F)(F)F)cc4C3)c2C)CC1 [Example 69q]
7,0.014,Cc1c(C(=O)N2CCC(N[C@@H]3CCOC[C@@H]3F)CC2)ncnc1N1COc2ccc(C(F)(F)F)cc2C1 [Example 69l]
8,0.411,COC1COCCC1NC1CCN(C(=O)c2ncnc(N3CCN(c4ncnc5scc(C)c45)CC3)c2C)CC1 (stereo not shown) [Example 62r]
9,0.054,COC1COCCC1NC1CCN(C(=O)c2ncnc(N3CCN(c4ccc(Cl)c(C(F)(F)F)c4)CC3)c2C)CC1 (stereo not shown) [Example 62w]
10,0.145,COC1COCCC1NC1CCN(C(=O)c2ncnc(N3CCN(c4cc(F)cc(F)c4)CC3)c2C)CC1 (stereo not shown) [Example 62ak]
11,0.007,Cc1c(C(=O)N2CCC(NC3CCOCC3)CC2)ncnc1N1CCc2ccc(C(F)(F)F)cc2C1 [Example 69r]
12,0.538,COC1COCCC1NC1CCN(C(=O)c2ncnc(N3CCC4(CC3)CC(=O)c3cc(F)ccc3O4)c2C)CC1 (stereo not shown) [Example 62g]
13,0.119,COC1COCCC1NC1CCN(C(=O)c2ncnc(N3CCN(c4ccc(C(F)(F)F)cc4)CC3)c2C)CC1 (stereo not shown) [Example 62p]
14,0.049,COc1cc(N2CCN(c3ncnc(C(=O)N4CCC(NC5CCOCC5OC)CC4)c3C)CC2)cc(C(F)(F)F)c1 (stereo not shown) [Example 62ae]
